The values below come from patent US20080113956A1, “Substituted Porphyrins” (priority 1997, published 2008).

A short description of data set [1]: Water solubility of the chloride salt. The class given is physicochemical. To be noted: micelles were not observed. The procedure: The same procedure described above was used. 0.92 mL of 1-iodobutane (100 eq) was added and the mixture stirred at 100° C. for 7 days. […] The elemental analysis was thus performed on the hexafluorophosphate salt (non-viscous). The chlorine salt is water-soluble (micelles were not observed). UV(H2O) of the chloride salt, ε454.0 1.21×10^5 M^−1cm^−1. Elemental analysis, calcd. For MnC56H60N8P5F30.H2O: C (40.94), H (3.80), N (6.82); found: C (41.15), H (4.35), N (6.52).

The test system of a further data set is DNA. In words: SOD activity in vitro in the presence of DNA (DNA interaction). The data set is classed as biochemical. The source says: The “ortho effect” also decreases the toxicity. It is well known that porphyrins, and particularly cationic porphyrins, interact with DNA and can act as DNA cleavers. This fact can be an issue in the use of metallo-porphyrins as anti-tumor drugs. The present mimetics avoid this interaction.
In order to maximize the decrease in toxicity due to interaction with DNA, two derivatives of the ortho compound have been prepared which carry four ethyl or four butyl groups (“4” and “5”, respectively).

A short description of data set [2]: SOD-like activity in vitro (xanthine/xanthine oxidase, ferricytochrome c; McCord and Fridovich). The data set is classed as biochemical. As to conditions: Example VII. The protocol:
(§1) SOD activity can be monitored in the presence and absence of EDTA using the method of McCord and Fridovich (J. Biol. Chem. 244:6049 (1969)). The efficacy of a mimetic can also be determined by measuring the effect of the mimetic on the aerobic growth of a SOD null E. coli strain versus a parental strain lacking the specific mutations. Specifically, parental E. coli (AB1157) and SOD null E. coli. (JI132) can be grown in M9 medium containing 0.2% casamino acids and 0.2% glucose at pH 7.0 and 37° C.; growth can be monitored in terms of turbidity followed at 700 nm.
The superoxide dismutase activity of the mimetics of the invention depends on a number of factors, including thermodynamic factors (eg the metal-centered redox-potential see FIG. 1)), and kinetic factors (eg electrostatic facilitation).
Superoxide dismuting activity. The SOD-like activities were measured using the xanthine/xanthine oxidase system as a source of O2^− and ferricytochrome c as its indicating scavenger (McCord et al, J. Biol. Chem. 244:6049 (1969)). O2— was produced at the rate of 1.2 μM per minute and reduction of ferricytochrome c was followed at 550 nm. Assays were conducted in presence of 0.1 mM EDTA in 0.05 M phosphate buffer (pH 7.8). Rate constants for the reaction of the compounds were based upon competition with […] cytochrome c, kcyt c=2.6×10^5 M^−1s^−1 (Butler et al, J. Biol. Chem. 257:10747 (1982)). All measurements were done at 25° C. Cytochrome c concentration was at least 10^3-fold higher than the concentrations of the SOD mimics and the rates were linear for at least two minutes, during which the compounds intercepted ˜100 equivalents of O2^−, thus confirming the catalytic nature of O2^− dismutation in presence of the mimics.
Superoxide dismuting activities. SOD-like activities were measured as described previously, based on competition with cytochrome c (McCord et al, J. Biol. Chem. 244:6049 (1969)). MnClxTE-2-PyP^5+ SOD-like activities are reported in Table 5, IC50 (M) representing the concentration for one unit of activity (or the concentration that causes 50% inhibition of cytochrome c reduction by O2^−) and kcat (M^−1s^−1) representing the rate constant for the superoxide dismutation reaction. The SOD-like activity per mole of MnCl4TE-2-PyP^5 is approximately 2-, 7- and 100-fold higher than MnOBTMPyP^4+, MnTM-2-PyP^5+ and MnTM-4PyP^5+, respectively (Faulkner et al, J. Biol. Chem. 269:23471 (1994); Batinic-Haberle et al, Arch. Biochem. Biophys. 343:225 (1997); Batinic-Haberle et al, J. Biol. Chem. 273:24521 (1998)). The SOD-like activity of MnCl4TE-2-PyP^5+ represents 20% of the activity of the Cu,Zn-SOD enzyme on a molar basis (40% per active site considering that the enzyme has two active sites) (Klug-Roth et al, J. Am. Chem. Soc. 95:2786 (1973)).

The subject of the next data set is SOD null E. coli (JI132). In words: Aerobic growth of SOD null E. coli strain versus parental strain. The data set is classed as cell-based. The procedure:
FIG. 3. SOD activity in vivo (E. coli) of 1, 2, 3* and 4* (20 μM) in minimal medium (mixture of atropoisomers, JI=SOD deficient strain, AB parental strain).
as §1
The activity in vivo of the mimetics of the invention can be tested on an E. coli strain deleted of the genes coding for both the MnSOD and FeSOD. In this assay, the efficacy of a mimetic is determined by measuring the effect of the mimetic on the aerobic growth of a SOD null E. coli strain versus a parental strain. Specifically, parental E. coli (AB1157) and SOD null E. coli. (JI132) are grown in M9 medium containing 0.2% casamino acids and 0.2% glucose at pH 7.0 and 37° C.; growth is monitored in terms of turbidity followed at 700 nm.

Data set [3] in a line: Electrochemistry: metal-centered redox potential. The data set is classed as physicochemical. To be noted: vs NHE; listed as 2. The protocol:
Electrochemistry. The electrochemical characterization was performed as described previously on a Voltammetric Analyzer Model 600 (CH instrument) using a glassy carbon electrode (Ag/AgCl reference and Pt auxiliary electrodes), at 0.5 mM porphyrin, pH 7.8 (0.05 M phosphate buffer), 0.1 M NaCl. The potentials were standardized against potassium ferricyanide/potassium ferrocyanide couple (Batinic-Haberle et al, Arch. Biochem. Biophys. 343:225 (1997); Kolthof et al, J. Phys. Chem. 39:945 (1974)).
Electrochemistry. The metal-centered redox behavior of all metalloporphyrin products was reversible. The half-wave potentials (E^O1/2) were calculated as the average of the cathodic and anodic peaks and are given in mV vs NHE (Table 5). The average shift per chlorine is +55 mV (Table 5), which is in agreement with the values previously reported for H2TPP derivatives (between −50 and +70 mV) (Sen et al, Chem. Soc. Faraday Trans. 93:4281 (1997); Autret et al. J. Chem. Soc. Dalton Trans. 2793 (1996); Hariprasad et al, J. Chem. Soc. Dalton Trans. 3429 (1996); Tagliatesta et al, Inorg. Chem. 35:5570 (1996); Ghosh, J. Am. Chem. Soc. 117:4691 (1995); Takeuchi et al, J. Am. Chem. Soc. 116:9730 (1994); Binstead et al, Inorg. Chem. 30:1259 (1991); Giraudeau et al, J. Am. Chem. Soc. 101:3857 (1979)). This shift appears to be higher (˜+65 mV) between 0 and 1, and between 2 and 3 chlorines (Table 5). […] The manganese redox state of MnCl4TE-2-PyP^5 (E^O1/2=+448 mV) and MnOBTMPyP^4+ (E^O1.2=+480 mV) is 3+ and 2+, respectively. This difference may be explained by their difference in terms of redox potential (˜30 mV) but also by structural considerations, for instance an increased distortion of the porphyrin ring in the case of MnOBTMPyP^4+. (Batinic-Haberle et al, Arch. Biochem. Biophys. 343:225 (1997); Ochsenbein et al, Angew. Chem. Int. Ed. Engl. 33:348 (1994)).

`CCCC[n+]1ccccc1-c1c2nc(c(-c3cccc[n+]3CCCC)c3ccc([n-]3)c(-c3cccc[n+]3CCCC)c3nc(c(-c4cccc[n+]4CCCC)c4ccc1[n-]4)C=C3)C=C2.[Mn+3]` [compound 5, manganic meso-tetrakis-(N-butylpyridinium-2-yl)porphyrin]: the solubility in water entry in data set [1] is on record as “water-soluble”. The “toxicity due to interaction with DNA, comparison between ortho derivatives” value in the data set on DNA (Table 2 and FIG. 3) is given as “did not show a further decrease in toxicity”.
With “manganese(III) 5,10,15,20-tetrakis(N-methylpyridyl)porphyrin [MnTM-3-PyP^5+]”, the “rate of dismutation (kcat)” value in data set [2] was 4.1e+06 M⁻¹ s⁻¹. In addition, the “interaction with DNA” value with DNA (SOD activity in vitro in the presence of DNA) is “greatly decreased”. In addition, the “aerobic growth (A700) of SOD null E. coli cells” value in the data set with SOD null E. coli (JI132) (20 μM, glucose minimal medium (M9) plus 5 essential amino acids, JI132, listed as 2) is on record as “increase in A700”. Also, in the data set on SOD null E. coli (JI132) (FIG. 3), the “toxicity in vivo (E. coli)” value is listed as “decreased toxicity”. For the same compound, the “E1/2 one-electron metal-centered redox-potential” value in data set [3] is on record as “+0.042 V”.
